ChEMBL document CHEMBL3734759, “Discovery of a new class of histone deacetylase inhibitors with a novel zinc binding group” (Medchemcomm, 2015)

Key:
[1] = molecular target: Histone deacetylase 2 (Homo sapiens) (UniProt Q92769); conditions: at 20 µM;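 note: recombinant enzyme activity measured with the fluorogenic acetylated lysine substrate Boc-Lys(Ac)-AMC, read on a microplate reader after 30–60 min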
Description: Inhibition of human recombinant HDAC2 at 20 uM using Boc-Lys(Ac)-AMC as substrate after 30 to 60 mins by microplate reader assay

[2] = Cytotoxicity against human MV411 cells assessed as growth inhibition after 24 hrs by MTS assay; type: functional, cell-based, MV4-11
[3] = molecular target: Histone deacetylase 3 (Homo sapiens) (UniProt O15379); conditions: at 20 µM;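 note: recombinant enzyme assay with Boc-Lys(Ac)-AMC substrate, fluorescence read on a microplate reader after 30–60 min incubation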
Histone deacetylase 3 (Homo sapiens), sequence (O15379 whole entry): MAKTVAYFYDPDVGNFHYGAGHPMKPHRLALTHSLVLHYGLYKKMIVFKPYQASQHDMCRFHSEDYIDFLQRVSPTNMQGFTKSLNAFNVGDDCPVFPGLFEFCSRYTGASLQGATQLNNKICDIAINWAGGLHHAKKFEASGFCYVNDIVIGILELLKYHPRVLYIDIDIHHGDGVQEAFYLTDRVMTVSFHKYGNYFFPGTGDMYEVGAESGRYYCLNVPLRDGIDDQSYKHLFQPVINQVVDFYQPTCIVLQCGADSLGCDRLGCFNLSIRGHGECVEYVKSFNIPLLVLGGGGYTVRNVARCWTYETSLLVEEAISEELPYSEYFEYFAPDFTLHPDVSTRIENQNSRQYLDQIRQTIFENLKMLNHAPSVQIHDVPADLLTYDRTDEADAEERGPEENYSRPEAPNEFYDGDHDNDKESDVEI
Description: Inhibition of human recombinant HDAC3 at 20 uM using Boc-Lys(Ac)-AMC as substrate after 30 to 60 mins by microplate reader assay

[4] = molecular target: T1, Histone deacetylase (Homo sapiens) (UniProt Q13547+O15379+Q9UBN7+Q92769+Q9UQL6+Q8WUI4+Q9BY41+Q96DB2+P56524+Q9UKV0+Q969S8); assay: Inhibition of HDAC in human MV411 cells assessed as up regulation of p21 WAF1/CIP1 expression after 4 hrs by western blot analysis; type: cell-based; conditions: MV4-11
[5] = Binding affinity to Zn2+ assessed as Zn2+/compound complex formation by ITC analysis
[6] = molecular target: T1, Histone deacetylase (Homo sapiens); assay: Inhibition of HDAC in human MV411 cells assessed as increase in H3K9 aceylation after 4 hrs by western blot analysis; type: cell-based; conditions: MV4-11
[7] = Lipophilicity, LogP of the compound; type: physicochemical; conditions: octanol/water
[8] = Homo sapiens, MV4-11, 24 h, read-out: IC50

Histone deacetylase 2 (Homo sapiens), sequence (Q92769 whole entry): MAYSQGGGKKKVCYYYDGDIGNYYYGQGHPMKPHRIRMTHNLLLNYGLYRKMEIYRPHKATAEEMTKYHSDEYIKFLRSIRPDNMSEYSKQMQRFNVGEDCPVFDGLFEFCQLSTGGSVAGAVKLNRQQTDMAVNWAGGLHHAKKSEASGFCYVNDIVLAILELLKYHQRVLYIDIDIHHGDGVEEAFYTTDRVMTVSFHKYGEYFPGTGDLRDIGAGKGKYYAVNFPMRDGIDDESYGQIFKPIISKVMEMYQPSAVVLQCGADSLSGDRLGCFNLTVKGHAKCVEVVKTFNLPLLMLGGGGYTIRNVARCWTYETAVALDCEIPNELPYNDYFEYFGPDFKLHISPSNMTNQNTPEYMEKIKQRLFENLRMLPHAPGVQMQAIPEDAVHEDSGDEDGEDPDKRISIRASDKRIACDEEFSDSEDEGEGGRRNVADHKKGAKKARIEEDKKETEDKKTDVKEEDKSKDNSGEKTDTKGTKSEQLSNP

SMILES | inhibition [1] | inhibition [3] | also measured
O=C(NCc1ccc(-c2ccccc2)cc1)c1coc(-c2ccccc2O)n1 | 52.2% | 40.1% | IC50 [2, 8]: > 100 µM
O=C(NC(c1ccccc1)c1ccccc1)c1coc(-c2ccccc2O)n1 | 54.1% | 37.8% | inhibition [4]: Dose-dependent effect; Kd [5]: 0.203 µM; IC50 [2, 8]: 7.5 µM; inhibition [6]: Dose-dependent effect; logP [7]: 3.91
O=C(NCCCCNC(=S)NCCC(c1ccccc1)c1ccccc1)c1coc(-c2ccccc2O)n1 | 1.3% | 3.7% | –
O=C(NCC(c1ccccc1)c1ccccc1)c1coc(-c2ccccc2O)n1 | 34.8% | 23.7% | IC50 [2, 8]: 40 µM
COC(=O)c1coc(-c2ccccc2O)n1 | 30.1% | 39.1% | –
O=C(NO)C(c1ccccc1)c1ccccc1 | – | 76.4% | –
O=C(Nc1ccccc1)c1coc(-c2ccccc2O)n1 | 29.5% | 22.5% | IC50 [2, 8]: 25 µM
O=C(NCCCCN1C(=O)c2ccccc2C1=O)c1coc(-c2ccccc2O)n1 | 25.4% | 11% | –
O=C(NCCCCNC(=O)C(c1ccccc1)c1ccccc1)c1coc(-c2ccccc2O)n1 | 0% | 4% | –
O=C(NCCC(c1ccccc1)c1ccccc1)c1coc(-c2ccccc2O)n1 | 28.7% | 37.5% | IC50 ([2]; mv4-11): Not Active
O=C(NCCCCNCCC(c1ccccc1)c1ccccc1)c1coc(-c2ccccc2O)n1 | 19.7% | 18.1% | –
O=C(NCCc1c[nH]c2ccccc12)c1coc(-c2ccccc2O)n1 | 36% | 18.9% | –
O=C(O)c1coc(-c2ccccc2O)n1 | 54.8% | 38.7% | –
O=C(CNC(=O)c1coc(-c2ccccc2O)n1)Nc1ccccc1 | 32% | 36.9% | –
O=C(Nc1ccccc1)c1ccc(CNC(=O)c2coc(-c3ccccc3O)n2)cc1 | 41.3% | 15.8% | –
O=C(NCc1cccc2ccccc12)c1coc(-c2ccccc2O)n1 | 45.2% | 32.3% | –
CC(/C=C/C(=O)NO)=C\[C@@H](C)C(=O)c1ccc(N(C)C)cc1 | 99.2% | – | –
O=C(O)c1ccc(CNC(=O)c2coc(-c3ccccc3O)n2)cc1 | 56.5% | 39.7% | –
O=C(Nc1ccc(-c2ccccc2)cc1)c1coc(-c2ccccc2O)n1 | 31.9% | 30.2% | IC50 ([2]; mv4-11): Not Active
